These results are taken from ChEMBL document CHEMBL5233284, “Design, synthesis and anticancer evaluation of 3-methyl-1H-indazole derivatives as novel selective bromodomain-containing protein 4 inhibitors” (Bioorg Med Chem, 2021).

Test [1] has as its system MV4-11. The test is described as follows: Antiproliferative activity against human MV4-11 cells assessed as inhibition of cell growth at 10 uM incubated for 96 to 120 hrs by celltiter glo assay relative to control. The class given is functional. To be noted: for inhibition at 10 µM: Homo sapiens, MV4-11, time 96-120 hrs. (Cellular ATP, detected with luciferase, serves as a proxy for viable cell number.)

Test [2] relates to MV4-11. Nature of the test: Antiproliferative activity against human MV4-11 cells assessed as inhibition of cell growth incubated for 96 to 120 hrs by celltiter glo assay. The class given is functional, cell-based.
Test [3] deals with T1, Bromodomain-containing protein 4 (Homo sapiens, UniProt O60885). Conditions: dose 200.0 µM, time 30-60 min.
Description: Binding affinity to BRD4-BD1 (unknown origin) assessed as change in melting temperature at 200 uM incubated for 30 to 60 mins by SYPRO orange dye based thermal shift assay
Test [4] deals with CWR22R. The test is described as follows: Antiproliferative activity against human 22Rv1 cells assessed as inhibition of cell growth incubated for 96 to 120 hrs by celltiter glo assay. The class given is functional, cell-based.
Test [5] concerns the target T1, Bromodomain-containing protein 4. The test is described as follows: Inhibition of BRD4-BD1 (unknown origin) using C-terminal biotinylated tetra-acetylated histone H4 peptide as substrate incubated for 2.5 hrs by alphascreen assay.
Test [6] relates to CWR22R. Nature of the test: Antiproliferative activity against human 22Rv1 cells assessed as inhibition of cell growth at 10 uM incubated for 96 to 120 hrs by celltiter glo assay relative to control. The format is functional. To be noted: for inhibition at 10 µM: Homo sapiens, 22Rv1, time 96-120 hrs.
Test [7] concerns the target SWI/SNF-related matrix-associated actin-dependent regulator of chromatin subfamily A member 2 (Homo sapiens) (UniProt P51531). Nature of the test: Binding affinity to SMARCA2A (unknown origin) assessed as change in melting temperature at 200 uM incubated for 30 to 60 mins by SYPRO orange dye based thermal shift assay. Conditions: time 30-60 min.
Test [8] deals with T1, Bromodomain-containing protein 4. Nature of the test: Inhibition of BRD4-BD1 (unknown origin) at 60 uM relative to control.
The target in test [9] is Bromodomain-containing protein 2 (Homo sapiens) (UniProt P25440). The test is described as follows: Binding affinity to BRD2 BD1 (unknown origin) assessed as change in melting temperature at 200 uM incubated for 30 to 60 mins by SYPRO orange dye based thermal shift assay. To be noted: time 30-60 min.
Test [10] deals with CREB-binding protein (Homo sapiens) (UniProt Q92793). Nature of the test: Binding affinity to CBP (unknown origin) assessed as change in melting temperature at 200 uM incubated for 30 to 60 mins by SYPRO orange dye based thermal shift assay. Conditions: time 30-60 min.
In test [11] the target is Chromatin remodeling regulator CECR2 (Homo sapiens) (UniProt Q9BXF3). Nature of the test: Binding affinity to CECR2 (unknown origin) assessed as change in melting temperature at 200 uM incubated for 30 to 60 mins by SYPRO orange dye based thermal shift assay. To be noted: time 30-60 min.
Test [12] deals with Bromodomain adjacent to zinc finger domain protein 2B (Homo sapiens) (UniProt Q9UIF8). The test is described as follows: Binding affinity to BAZ2B (unknown origin) assessed as change in melting temperature at 200 uM incubated for 30 to 60 mins by SYPRO orange dye based thermal shift assay. Conditions: time 30-60 min.
The target of test [13] is Histone acetyltransferase KAT2B (Homo sapiens) (UniProt Q92831). Nature of the test: Binding affinity to PCAF (unknown origin) assessed as change in melting temperature at 200 uM incubated for 30 to 60 mins by SYPRO orange dye based thermal shift assay. Conditions: time 30-60 min.
Histone acetyltransferase KAT2B (Homo sapiens), sequence (Q92831 whole entry, looked up): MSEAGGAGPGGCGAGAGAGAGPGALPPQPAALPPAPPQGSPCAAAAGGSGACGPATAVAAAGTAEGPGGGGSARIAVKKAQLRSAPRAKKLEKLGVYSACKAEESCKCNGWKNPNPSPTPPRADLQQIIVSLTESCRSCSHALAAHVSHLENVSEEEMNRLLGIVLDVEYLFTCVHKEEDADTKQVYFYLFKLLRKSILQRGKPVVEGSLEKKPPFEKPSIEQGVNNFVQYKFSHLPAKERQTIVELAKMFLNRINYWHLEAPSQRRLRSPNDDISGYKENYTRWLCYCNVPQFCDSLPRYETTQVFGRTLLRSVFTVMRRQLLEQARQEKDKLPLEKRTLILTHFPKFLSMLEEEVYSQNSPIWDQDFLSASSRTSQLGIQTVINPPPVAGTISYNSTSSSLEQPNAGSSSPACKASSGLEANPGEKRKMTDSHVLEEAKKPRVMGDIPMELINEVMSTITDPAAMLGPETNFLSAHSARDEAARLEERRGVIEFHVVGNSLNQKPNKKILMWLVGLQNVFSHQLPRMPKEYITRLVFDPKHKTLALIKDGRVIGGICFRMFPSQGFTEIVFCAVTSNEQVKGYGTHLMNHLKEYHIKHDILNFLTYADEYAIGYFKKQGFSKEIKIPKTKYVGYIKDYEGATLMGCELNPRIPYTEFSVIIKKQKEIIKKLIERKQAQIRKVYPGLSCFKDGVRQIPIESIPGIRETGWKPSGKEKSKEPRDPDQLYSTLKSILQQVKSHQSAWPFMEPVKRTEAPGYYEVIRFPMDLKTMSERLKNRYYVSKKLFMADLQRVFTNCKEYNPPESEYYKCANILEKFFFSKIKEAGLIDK
Test [14] concerns the target Histone acetyltransferase p300 (Homo sapiens) (UniProt Q09472). The test is described as follows: Binding affinity to EP300 (unknown origin) assessed as change in melting temperature at 200 uM incubated for 30 to 60 mins by SYPRO orange dye based thermal shift assay. Conditions: time 30-60 min.
Test [15] concerns the target Bromodomain-containing protein 3 (Homo sapiens) (UniProt Q15059). Nature of the test: Binding affinity to BRD3 BD1 (unknown origin) assessed as change in melting temperature at 200 uM incubated for 30 to 60 mins by SYPRO orange dye based thermal shift assay. Conditions: time 30-60 min.
Test [16] deals with T1, Bromodomain-containing protein 4. The test is described as follows: Inhibition of BRD4 BD1 in human MV4-11 cells assessed as inhibition of c-myc protein expression at 20 uM incubated for 48 hrs by Western blot analysis. The format is cell-based. (In general: Immunoblotting shows a protein as a band on a membrane.)

Active and inactive are the calls of the source. No cut-off for these calls is given here.

SWI/SNF-related matrix-associated actin-dependent regulator of chromatin subfamily A member 2 (Homo sapiens), sequence (P51531 whole entry): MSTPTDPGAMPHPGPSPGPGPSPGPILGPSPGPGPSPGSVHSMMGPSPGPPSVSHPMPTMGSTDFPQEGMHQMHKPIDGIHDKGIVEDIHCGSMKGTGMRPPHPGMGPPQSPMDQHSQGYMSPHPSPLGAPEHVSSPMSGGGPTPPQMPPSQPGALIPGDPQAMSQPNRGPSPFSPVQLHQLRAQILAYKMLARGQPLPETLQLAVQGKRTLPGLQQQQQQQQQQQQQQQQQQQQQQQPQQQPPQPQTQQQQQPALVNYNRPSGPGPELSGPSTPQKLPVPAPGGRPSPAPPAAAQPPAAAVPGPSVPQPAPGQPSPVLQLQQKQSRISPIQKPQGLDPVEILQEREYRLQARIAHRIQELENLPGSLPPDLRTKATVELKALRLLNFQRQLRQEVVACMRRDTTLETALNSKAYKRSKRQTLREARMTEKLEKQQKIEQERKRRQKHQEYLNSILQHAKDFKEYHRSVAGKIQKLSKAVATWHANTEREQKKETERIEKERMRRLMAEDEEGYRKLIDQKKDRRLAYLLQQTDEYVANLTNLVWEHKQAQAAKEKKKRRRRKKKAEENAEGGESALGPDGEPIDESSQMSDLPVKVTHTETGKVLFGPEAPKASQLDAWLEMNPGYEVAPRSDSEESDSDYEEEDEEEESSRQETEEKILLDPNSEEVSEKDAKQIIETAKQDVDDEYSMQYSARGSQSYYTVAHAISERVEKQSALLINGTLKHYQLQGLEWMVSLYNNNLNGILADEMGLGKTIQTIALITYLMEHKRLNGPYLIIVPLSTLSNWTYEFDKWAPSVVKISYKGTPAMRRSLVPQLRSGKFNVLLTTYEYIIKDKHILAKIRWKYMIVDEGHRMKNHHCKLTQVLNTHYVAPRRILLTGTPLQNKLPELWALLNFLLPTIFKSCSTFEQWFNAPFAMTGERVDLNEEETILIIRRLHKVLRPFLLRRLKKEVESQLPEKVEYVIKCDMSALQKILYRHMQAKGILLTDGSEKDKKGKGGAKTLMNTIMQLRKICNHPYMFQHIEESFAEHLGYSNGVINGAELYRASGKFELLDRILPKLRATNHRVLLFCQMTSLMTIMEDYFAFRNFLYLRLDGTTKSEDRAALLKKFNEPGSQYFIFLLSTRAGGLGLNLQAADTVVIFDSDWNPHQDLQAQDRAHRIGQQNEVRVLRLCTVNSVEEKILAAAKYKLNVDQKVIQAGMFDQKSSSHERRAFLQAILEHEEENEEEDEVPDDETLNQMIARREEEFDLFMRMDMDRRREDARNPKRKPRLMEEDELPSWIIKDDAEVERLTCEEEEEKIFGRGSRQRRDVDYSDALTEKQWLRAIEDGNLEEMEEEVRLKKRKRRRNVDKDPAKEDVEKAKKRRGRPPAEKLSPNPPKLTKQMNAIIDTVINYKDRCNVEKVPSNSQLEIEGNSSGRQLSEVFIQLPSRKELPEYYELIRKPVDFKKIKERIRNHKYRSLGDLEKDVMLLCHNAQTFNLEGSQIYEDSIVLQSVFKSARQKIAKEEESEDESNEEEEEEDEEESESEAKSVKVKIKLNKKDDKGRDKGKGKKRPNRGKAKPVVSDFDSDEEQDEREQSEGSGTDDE
Histone acetyltransferase p300 (Homo sapiens), sequence (Q09472 whole entry): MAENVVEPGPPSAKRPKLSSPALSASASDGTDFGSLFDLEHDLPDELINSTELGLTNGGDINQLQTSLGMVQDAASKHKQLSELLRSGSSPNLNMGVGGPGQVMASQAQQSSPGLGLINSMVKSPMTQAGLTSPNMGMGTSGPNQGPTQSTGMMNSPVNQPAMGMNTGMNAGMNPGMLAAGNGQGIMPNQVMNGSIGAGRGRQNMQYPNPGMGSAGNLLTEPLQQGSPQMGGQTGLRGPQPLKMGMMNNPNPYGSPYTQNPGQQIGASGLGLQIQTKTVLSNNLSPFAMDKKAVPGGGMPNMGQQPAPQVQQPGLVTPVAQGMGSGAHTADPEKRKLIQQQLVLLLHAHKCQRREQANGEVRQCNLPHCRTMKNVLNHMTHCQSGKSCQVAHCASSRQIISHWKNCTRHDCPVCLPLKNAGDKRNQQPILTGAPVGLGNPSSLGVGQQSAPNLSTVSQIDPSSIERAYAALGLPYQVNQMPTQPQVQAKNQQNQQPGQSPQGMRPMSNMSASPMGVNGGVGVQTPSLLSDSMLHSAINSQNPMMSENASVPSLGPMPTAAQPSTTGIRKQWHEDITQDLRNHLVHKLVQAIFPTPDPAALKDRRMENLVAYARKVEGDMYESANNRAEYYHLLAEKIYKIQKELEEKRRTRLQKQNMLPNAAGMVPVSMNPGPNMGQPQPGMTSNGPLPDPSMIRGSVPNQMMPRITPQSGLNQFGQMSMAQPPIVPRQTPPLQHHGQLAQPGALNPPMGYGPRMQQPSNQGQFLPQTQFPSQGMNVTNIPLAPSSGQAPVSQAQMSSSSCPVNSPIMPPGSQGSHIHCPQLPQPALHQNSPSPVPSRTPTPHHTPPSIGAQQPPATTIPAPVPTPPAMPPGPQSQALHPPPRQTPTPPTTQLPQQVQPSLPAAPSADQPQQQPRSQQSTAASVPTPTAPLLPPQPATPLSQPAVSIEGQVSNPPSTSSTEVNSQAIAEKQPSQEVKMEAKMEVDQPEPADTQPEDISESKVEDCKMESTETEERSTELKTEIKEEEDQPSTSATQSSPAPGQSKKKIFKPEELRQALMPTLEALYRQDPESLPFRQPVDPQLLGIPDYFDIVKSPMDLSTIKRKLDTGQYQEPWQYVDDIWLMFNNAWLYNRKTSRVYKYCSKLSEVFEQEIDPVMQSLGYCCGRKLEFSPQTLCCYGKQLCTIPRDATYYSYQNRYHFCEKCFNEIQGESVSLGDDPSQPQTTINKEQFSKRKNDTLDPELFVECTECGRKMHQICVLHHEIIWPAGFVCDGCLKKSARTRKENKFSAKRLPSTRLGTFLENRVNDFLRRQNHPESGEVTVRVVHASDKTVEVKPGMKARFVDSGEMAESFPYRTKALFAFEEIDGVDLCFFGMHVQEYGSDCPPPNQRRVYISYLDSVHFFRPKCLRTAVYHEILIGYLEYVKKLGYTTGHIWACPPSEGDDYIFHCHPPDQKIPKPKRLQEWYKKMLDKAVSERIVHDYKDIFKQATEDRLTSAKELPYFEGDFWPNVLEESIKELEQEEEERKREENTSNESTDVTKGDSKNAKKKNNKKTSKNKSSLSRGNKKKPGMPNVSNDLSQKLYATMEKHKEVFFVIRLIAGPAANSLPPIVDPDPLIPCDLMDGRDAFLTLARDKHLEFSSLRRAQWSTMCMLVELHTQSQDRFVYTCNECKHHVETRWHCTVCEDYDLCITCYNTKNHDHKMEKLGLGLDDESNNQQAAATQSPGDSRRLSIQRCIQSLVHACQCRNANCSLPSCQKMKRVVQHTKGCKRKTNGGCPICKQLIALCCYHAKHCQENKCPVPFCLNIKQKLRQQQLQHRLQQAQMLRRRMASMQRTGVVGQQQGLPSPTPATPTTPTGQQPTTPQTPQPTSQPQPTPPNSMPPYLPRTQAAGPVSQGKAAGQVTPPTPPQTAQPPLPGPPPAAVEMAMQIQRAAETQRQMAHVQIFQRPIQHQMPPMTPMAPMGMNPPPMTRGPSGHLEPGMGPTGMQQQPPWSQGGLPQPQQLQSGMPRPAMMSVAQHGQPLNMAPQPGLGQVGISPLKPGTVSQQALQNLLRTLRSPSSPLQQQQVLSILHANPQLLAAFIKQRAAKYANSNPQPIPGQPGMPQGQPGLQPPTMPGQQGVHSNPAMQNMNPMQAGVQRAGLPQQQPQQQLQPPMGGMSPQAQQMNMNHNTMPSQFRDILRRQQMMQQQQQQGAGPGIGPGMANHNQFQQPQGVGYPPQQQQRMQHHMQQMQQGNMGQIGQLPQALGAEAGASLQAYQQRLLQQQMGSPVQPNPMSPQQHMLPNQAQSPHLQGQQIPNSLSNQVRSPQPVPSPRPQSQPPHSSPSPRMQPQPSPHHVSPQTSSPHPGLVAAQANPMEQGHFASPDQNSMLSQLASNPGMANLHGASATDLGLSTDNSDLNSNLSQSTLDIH

As a reminder, the inhibition is the drop in the measured response relative to a control, in per cent. A word on the IC50: it is the concentration needed to halve the response being measured. One may read the ΔTm as the shift of the melting midpoint relative to a reference. For the molecule `Cc1n[nH]c2ccc(-c3nc4cnc(N5CCN(C)CC5)cn4c3Nc3ccc(Br)cc3Cl)cc12`, the inhibition at 10 µM in test [1] came out at 70.5%. Also, the IC50 in test [2] came out at 9.22 µM. In addition, in [3], the shift in melting temperature (ΔTm) is 2.7 °C.
As for `Cc1cc(Br)ccc1Nc1c(-c2ccc3[nH]nc(C)c3c2)nc2cnc(N3CCN(C)CC3)cn12`, the inhibition at 10 µM in [1] was 59.4%. The figures for the IC50 in [4] and in test [2] were 6.51 µM and 10.8 µM, respectively. Besides, the ΔTm in test [3] turned out to be 3.7 °C.
In turn, `Cc1n[nH]c2ccc(-c3nc4cnc(N5CCOCC5)cn4c3Nc3ccc(Br)cc3)cc12` registered an IC50 in [5] of 4.69 µM. Also, the inhibition at 10 µM in [6] was 10.1%; in [1] it was 45.9%. Further, the ΔTm in [3] stood at 6.9 °C.
The matching figures for `Cc1n[nH]c2ccc(-c3nc4cnc(N5CCN(C)CC5)cn4c3Nc3ccccc3F)cc12`: 9.89 µM, 0%, 0% and 6.9 °C.
On to `Cc1n[nH]c2ccc(-c3nc4cnc(N5CCOCC5)cn4c3Nc3ccccc3)cc12`, for which the IC50 was determined as 3.79 µM in test [5] and 38.2 µM in test [4]. Further, the inhibition at 10 µM in test [1] came to 0%. Besides, in test [3], the ΔTm was determined as 6.1 °C.
With `Cc1sc2c(c1C)C(c1ccc(Cl)cc1)=N[C@@H](CC(=O)OC(C)(C)C)c1nnc(C)n1-2`, the “inhibition (INH)” value in test [6] (time 96-120 hrs) came out at 82.88%; in test [1] (time 96-120 hrs) it was 90.01%. Moreover, the IC50 in test [4] came out at 0.033 µM; in [2], 0.017 µM. Further, the ΔTm in test [7] was -0.5 °C.
In test [8], `COc1cc(-c2nc3cnccn3c2Nc2ccccc2)ccc1O` came in with an inhibition of 40%.
In test [5], `Cc1n[nH]c2ccc(-c3nc4cnc(N5CCC(C)CC5)cn4c3Nc3ccc(Cl)cc3)cc12` returned an IC50 of 20.4 µM. Besides, the inhibition at 10 µM in test [6] stood at 12.6%; in [1] it was 27.9%. Moreover, the ΔTm in test [3] was found to be 2.1 °C.
The like results for `Cc1n[nH]c2ccc(-c3nc4cnc(N5CCN(C)CC5)cn4c3Nc3cc(Cl)ccc3Cl)cc12` were, in that order, 3.61 µM, 3.8%, 23.8% and 3.9 °C.
With `Cc1n[nH]c2ccc(-c3nc4cnc(N5CCN(C)CC5)cn4c3Nc3ccc(F)c(Cl)c3)cc12`, the IC50 in [5] amounted to 5.81 µM; in test [4], 14 µM; in test [2], 2.85 µM. The inhibition at 10 µM in test [6] came out at 0.82%; in [1] it was 84.1%. Also, in test [3], the ΔTm was determined as 6 °C.
For the molecule `Cc1n[nH]c2ccc(-c3nc4cnc(N5CCN(C)CC5)cn4c3Nc3ccc(I)cc3)cc12`, in [1], the inhibition at 10 µM came out at 0%. In test [3], the ΔTm turned out to be 4.5 °C.
Turning to `Cc1ccc(C)c(Nc2c(-c3ccc4[nH]nc(C)c4c3)nc3cnc(N4CCN(C)CC4)cn23)c1`, the inhibition at 10 µM in test [1] is 0%. The ΔTm in test [3] came out at 5.3 °C.
For `Cc1n[nH]c2ccc(-c3nc4cnc(N5CCN(C)CC5)cn4c3Nc3ccccc3)cc12`, inhibition in test [5] was half-maximal at 6.1 µM (IC50). For the same molecule, the inhibition at 10 µM in test [1] came to 0%. Besides, in test [3], the thermal shift (ΔTm) worked out at 5 °C.
`Cc1n[nH]c2ccc(-c3nc4cnc(N5CCN(C)CC5)cn4c3Nc3ccc(F)cc3)cc12`: the results for the IC50 in test [5], in [4] and in test [2] were 4.17 µM, 33.6 µM and 32.3 µM, respectively. Moreover, the inhibition at 10 µM in test [1] came out at 0%. The ΔTm in test [3] was 6.5 °C.
In the case of `COc1ccc(Nc2c(-c3ccc4[nH]nc(C)c4c3)nc3cnc(N4CCN(C)CC4)cn23)cc1OC`, in test [5], the IC50 turned out to be 12.7 µM. Besides, the inhibition at 10 µM was determined as 0% in [6] and 6.27% in test [1]. Also, the thermal shift (ΔTm) in test [3] was found to be 6.9 °C.
For the molecule `Cc1n[nH]c2ccc(-c3nc4cnc(N5CCN(C)CC5)cn4c3Nc3ccc(Br)cc3)cc12`, the IC50 in test [5] is 6.94 µM; in test [2], 2.6 µM. Moreover, the values for the inhibition at 10 µM in [6] and in test [1] were 11.7% and 83%, respectively. Further, in [3], the ΔTm worked out at 7.2 °C.
The like results for `Cc1n[nH]c2ccc(-c3nc4cnc(N5CCN(C)CC5)cn4c3Nc3ccc(F)cc3Br)cc12` were, in that order, 7.48 µM, 3.83 µM, 4.41%, 82.4% and 5.1 °C.
The matching figures for `Cc1n[nH]c2ccc(-c3nc4cnc(N5CCN(C)CC5)cn4c3Nc3ccc(Cl)cc3Cl)cc12`: 16 µM, 4.72 µM, 9.53%, 78.8% and 2 °C.
For the molecule `COc1ccc(Nc2c(-c3ccc4[nH]nc(C)c4c3)nc3cnc(N4CCN(C)CC4)cn23)cc1`, in test [5], the IC50 worked out at 20.5 µM. Moreover, the inhibition at 10 µM in test [6] came out at 0%; in test [1] it was 3.32%. For the same molecule, in test [3], the ΔTm is 5.3 °C.
The matching figures for `COc1ccc(Nc2c(-c3ccc4[nH]nc(C)c4c3)nc3cnc(N4CCOCC4)cn23)cc1`: 5.15 µM, 1.2%, 11.5% and 6.9 °C.
The like results for `Cc1n[nH]c2ccc(-c3nc4cnc(N5CCN(C)CC5)cn4c3Nc3cccc(F)c3)cc12` were, in that order, 14.3 µM, 5.41%, 18.5% and 6.9 °C.
Regarding `Cc1n[nH]c2ccc(-c3nc4cnc(N5CCN(C)CC5)cn4c3Nc3ccc(Cl)cc3F)cc12`, the IC50 in [5] is 6.78 µM; in test [4], 14.1 µM; in test [2], 10.3 µM. Besides, the inhibition at 10 µM in test [1] came out at 0%. The ΔTm in [3] was 4.5 °C.
Take `Cc1n[nH]c2ccc(-c3nc4cnc(N5CCN(C)CC5)cn4c3Nc3ccccc3Cl)cc12`: the inhibition at 10 µM in [1] worked out at 58.1%. Moreover, in test [3], the ΔTm is 3.6 °C.
In the case of `Cc1n[nH]c2ccc(-c3nc4cnc(N5CCN(C)CC5)cn4c3Nc3ccc(Cl)cc3)cc12`, the IC50 was found to be 6.35 µM in test [5] and 3.51 µM in test [2]. Also, the inhibition at 10 µM in [6] was 8.11%; in test [1] it was 83.7%. Moreover, the ΔTm in [3] came to 5 °C.
As for `Cc1n[nH]c2ccc(-c3nc4cnc(N5CCOCC5)cn4c3Nc3ccc(Cl)cc3)cc12`, the IC50 in test [5] came out at 3.55 µM; in [4] it was 15.8 µM; in [2], 3.7 µM. Also, the ΔTm is 1 °C in test [9]; -1 °C in test [10]; 0 °C in [11]; -2 °C in test [12]; -1.5 °C in [13]; -1.5 °C in test [14]. Moreover, the ΔTm in test [3] worked out at 7.5 °C; in [15], 2.3 °C; in test [7] it was 0 °C. For the same molecule, the results for the inhibition at 10 µM in test [6] and in test [1] were 13.8% and 84%, respectively. Besides, the inhibition result in test [16] is “Active”.
Consider `Cc1n[nH]c2ccc(-c3nc4cnc(N5CCN(C)CC5)cn4c3Nc3cccc(Cl)c3)cc12`, for which the inhibition at 10 µM in [1] amounted to 0%. Besides, in [3], the ΔTm is 6.3 °C.
The like results for `Cc1n[nH]c2ccc(-c3nc4cnc(N5CCOCC5)cn4c3Cc3ccc(Cl)cc3)cc12` were, in that order, 0% and 6.6 °C.
